Each structure is given as a SMILES string.

This note sets out measurements from patent US11268064B2, “Lactobacillus rhamnosus RHT-3201 conjugated to polysaccharide polymer binder, and use thereof for prevention or treatment of atopic diseases” (IL DONG PHARMACEUTICAL CO., LTD., priority 2014, dated 2022).

Data set [1] deals with severe atopic dermatitis-induced NC/Nga mice. Nature of the data set: Severe atopic dermatitis model, SCORAD evaluation. The format is in vivo. To be noted: baseline, before treatment with test materials; positive control group. Here is the method:
RHT-3201 according to the present invention was used as a test material, while steroid-based dexamethasone (Sigma Co. Ltd), which is used as a main therapeutic agent for severe atopic dermatitis, was used as a positive control. An extract of Dermatophagoides farina, which is a major species of house dust mite, was used as an atopy inducing material. The extract was purchased in an ointment form from Central Lab. Animal Inc.
The dexamethasone was prepared by being dissolved in ethanol into a concentration of 0.1% (w/v), and RHT-3201 of the present invention was prepared by being dissolved in distilled water to doses of 1×10^8 CFU/0.5 ml/mouse, 1×10^9 CFU/0.5 ml/mouse, and 1×10^10 CFU/0.5 ml/mouse, respectively. […]
In the present evaluation, the severity of atopic dermatitis was expressed as a total of evaluation scores of five items, using SCORAD (SCORing Atopic Dermatitis), which is a generally used method for clinical macroscopic evaluation. […] The scores for the five items (no symptom (score 0), mild symptom (score 1), moderate symptom (score 2), severe symptom (score 3) for each item) were added up, while the evaluation score was determined between the lowest score of 0 (a state in which there is no symptom) and the highest score of 15 (a state in which the symptoms for all items were severe). The severity of the mouse skin lesions was evaluated every week (see FIG. 6). […]

Data set [2] can be described thus: Body weight measurement during administration. In kind it is in vivo, NC/Nga mice. The settings on record: administration during eight weeks; dexamethasone transdermal, RHT-3201 oral (FIG. 9). How it is done:
The dexamethasone was prepared by being dissolved in ethanol into a concentration of 0.1% (w/v), and RHT-3201 of the present invention was prepared by being dissolved in distilled water to doses of 1×10^8 CFU/0.5 ml/mouse, 1×10^9 CFU/0.5 ml/mouse, and 1×10^10 CFU/0.5 ml/mouse, respectively. All the samples to be administered were prepared on the testing day. The dexamethasone was coated on the skin of a testing subject at 100 μl for each subject twice a week, while RHT-3201 according to the present invention was orally administered at 0.5 ml for each subject using a mouse zonde once a day. Distilled water was administered for a normal group and an atopy control group. The administration was conducted for 8 weeks in all the test groups.
The number of scratching behaviors for 15 minutes was counted once a week from week 1 of administration of a test drug. Only the number of scratching behaviors using a hind leg was counted in order to avoid counting scratching behaviors due to the other causes besides scratching behaviors due to pruritus. Meanwhile, the weight loss tends to occur due to side effects of drugs and stress at the time of inducing severe atopic dermatitis. In order to investigate whether the side effect of weight loss occurs by the test materials of the present invention, the test animals were weighed during the administration period of the test materials.

As to `C[C@@H]1C[C@H]2[C@@H]3CCC4=CC(=O)C=C[C@]4(C)[C@@]3(F)[C@@H](O)C[C@]2(C)[C@@]1(O)C(=O)CO` [Dexamethasone, dexamethasone], the “Severe atopic dermatitis score Mean ± SE (n = 6)” value in data set [1] turned out to be 10.8 ± 0.4. For the same compound, the “change in body weight” value in data set [2] was “weight loss for 4 weeks”.
